Structures can show the parent of a compound that is named as a salt.
Assays:
[1] = system: CD-1 mice; experiment: Resiniferatoxin-induced neurogenic inflammation (ear edema) in the mouse ear; format: in vivo; conditions: for % Inhibition of the Ear Edema: topical to left ear (20 μL) immediately after resiniferatoxin (0.05%) challenge, 7-mm ear biopsy weight 30 minutes after, lidocaine 0.5% w/v, sertaconazole nitrate 1% w/v in 70% ethanol/30% propylene glycol
Protocol: Eight Albino male CD-1 mice per group, 7-9 weeks old, were used. Induction of neurogenic inflammation in the mouse ear was based on known methods (Inoue H, et al., Br J Pharmacol. 110:1614-1620, 1993). A 20-μl volume of Resiniferatoxin (0.05%) prepared in acetone was applied to the left ears (8 mice per treatment group). The right ear was treated as a control and not treated. Lidocaine hydrochloride (Sigma Aldrich, St. Louis, Mo.) was prepared as a 0.5% w/v solution in 70% ethanol/30% propylene glycol vehicle. Sertaconazole nitrate (Grupo Ferrer International, Barcelona, Spain) was prepared as a 1.0% w/v solution in a 70% ethanol/30% propylene glycol vehicle and applied to the left ear (20 μL) immediately after resiniferatoxin challenge. The mice were sacrificed by CO2 inhalation 30 minutes after applying the solutions. The left and right ears were removed and a 7-mm biopsy was removed from each ear and weighed. The difference in biopsy weights between the right and left ear was calculated. The percent inhibition was calculated by comparing treatments to resiniferatoxin alone. Anti-neurogenic inflammation effects of compounds are evident as an inhibition of the increase in ear weight.

[2] = system: CD-1 mice; experiment: Substance P-induced itch-associated scratching behavior in mice; format: in vivo, mouse
Excerpt: In this model, an itch-associated response is induced by intradermal injection of the neuropetide, Substance-P, in mice, and scratching behavior is observed and quantitated. […] Clinically, scratching is used as an objective measure of itch since itch is a sensation which promotes the desire to scratch the stimulated area (Yosipovitch G., Definitions of Itch, in Itch Basic Mechanisms and Therapy, ed. Yosipovitch G., et al, 2003) Eight Albino male CD-1 mice per group, 7-9 weeks old, were used. Induction of scratching behavior in the mouse was based on known methods (Andoh T, et al., J Pharmacol Exp Ther. 286:1140-1145, 1998) and produces features similar to itch in humans. An itch-associated response was induced by intradermal injection of Substance P in CD-1 mice, and scratching behavior is observed and quantitated. Before the experiment, mice were individually housed in a plastic cage for at least 1 hour for acclimation. Mice are pre-treated for 30 minutes with topical application of Sertaconazole Nitrate (1%) prepared in 100% ethanol, to an area of the back, which had been shaved one day prior to the experiment. […] The number of scratches elicited during a 30 minute period after injection of Substance-P was determined by playback of the videotape.

Row | Structure (SMILES) | % Inhibition of the Ear Edema [1] | reducing neurogenic inflammation (result in words) ([1]; resiniferatoxin mouse ear model, compared to the control or untreated ear) | reduction of the itch compared to placebo ([2]; Substance P scratching model, topical 1% sertaconazole nitrate) | Scratches per 30 min (Mean ± S. D.) ([2]; topical 1% w/v in 100% ethanol on shaved back, 30 minutes pre-treatment, 300 ug Substance P intradermal, 30 minute period after injection)
1 | CCN(CC)CC(=O)Nc1c(C)cccc1C [Lidocaine, Lidocaine hydrochloride] | 28.7% | – | – | –
2 | Clc1ccc(C(Cn2ccnc2)OCc2csc3c(Cl)cccc23)c(Cl)c1 (centres unmarked) [Sertaconazole Nitrate, Sertaconazole nitrate] | 48.9% | highly effective | 38.7% | 39.8 ± 2.7
